The record followed here is ChEMBL document CHEMBL4837229 (Eur J Med Chem, 2021).

The pIC50 is the IC50 on a negative log10 scale, so that one unit is a factor of ten. High values mean a small IC50, low ones a large IC50.

pIC50: −log10 of the molar value.

The test has as its target Neuraminidase (Influenza A virus (strain A/USSR/90/1977 H1N1), UniProt P03469, H274Y). The test is described as follows: Inhibition of Influenza A virus (A/California/04/2009 (H1N1)) Neuraminidase H274Y mutant using MUNANA as substrate preincubated for 5 to 15 mins followed by substrate addition and measured after 30 mins by fluorescence spectrophotometric method.
Consider `CCCNNC(=O)N[C@H]1CC(C(=O)O)=C[C@@H](OC(CC)CC)[C@@H]1NC(C)=O`, for which the negative logarithm of the IC50 (pIC50) is 6.42.
In the case of `CCC(CC)O[C@@H]1C=C(C(=O)O)C[C@H](NC(=O)NN)[C@H]1NC(C)=O` it was 6.88; in that of `CCCCNNC(=O)N[C@H]1CC(C(=O)O)=C[C@@H](OC(CC)CC)[C@@H]1NC(C)=O`, 6.83.
In the case of `CCC(CC)O[C@@H]1C=C(C(=O)O)C[C@H](NC(=O)NNC)[C@H]1NC(C)=O` it was 6.93; in that of `CCC(CC)O[C@@H]1C=C(C(=O)O)C[C@H](NC(N)=O)[C@H]1NC(C)=O`, 6.18.
